Reference: patent US20240197726A1, “NOVEL TETRAHYDROISOQUINOLINE ALKALOID COMPOUND CONTAINING MACROCYCLE” (THE UNIVERSITY OF TOKYO, priority 2021, published 2024)
Read-outs that look alike come from different tables or passages of the source.

Assays:
Assay type in all cases: cell-based
[1] = system: HBC-4 breast cancer cells; assay: antitumor activity, sulforhodamine B cell growth assay, HBC-4
Experimental: (§1) The THIQ compound containing a macrocyclic structure of the present invention was administered to various cancer cell lines, and the antitumor activity (Go value) was observed. Specifically, verification was performed according to the literature (Yamori, T.; Matsunaga, A.; Sato, S.; Yamazaki, K.; Komi, A.; Ishizu, K. et al. Cancer Res. 1999, 59, 4042) by the following procedure.
(§2) Cells were plated at an appropriate density in a 96-well plate in RPMI 1640 together with 5% fetal bovine serum, and adhered overnight. The cells were exposed to a drug for 48 hours. Then, according to the sulforhodamine B assay described by Skehan et al (Skehan P., Storeng R., Scudiero D., Monks A., McMahon J., Vistica D., Warren J. T., Bokesch H., Kenney S., Boyd M. R. J Natl. Cancer Inst, 1990, 82, 1107-1112), the cell growth rate was measured. The absorbance of the control well (C) and the test well (T) was measured at 525 nm. In addition, the time at which the drug was added was set as time 0, and the absorbance for the test well (T0) was measured. Using these measured values, the cell growth inhibitory effect (% growth=PG) was calculated by the following formula at each concentration of the drug.
(§3) (T<T0): PG=100×[(T−T0)/T]
(§4) The PG values determined above for each cell line were plotted against the concentration (logarithm) on a semi-logarithmic graph, and summarized for each visceral cancer. Concentrations at which the dose-response curve of each cell line crossed the horizontal line of PG=50%, 0%, or −50% were calculated. These concentrations were defined as Log GI50, Log TGI, and Log LC50. Actually, using two data points of the drug concentration before and after crossing each horizontal line, the drug concentration (logarithmic value) at the intersection of the straight line connecting the two points and the horizontal line for each PG was calculated.

[2] = system: SNB-75 central nervous system cancer cells; assay: antitumor activity, sulforhodamine B cell growth assay, SNB-75
Experimental: as §1, §2, §3, §4

[3] = system: SNB-78 central nervous system cancer cells; assay: antitumor activity, sulforhodamine B cell growth assay, SNB-78
Experimental: as §1, §2, §3, §4

[4] = system: HT-29 colorectal cancer cells; assay: antitumor activity, sulforhodamine B cell growth assay, HT-29
Experimental: as §1, §2, §3, §4

[5] = system: HCT-15 colorectal cancer cells; assay: antitumor activity, sulforhodamine B cell growth assay, HCT-15
Experimental: as §1, §2, §3, §4

[6] = system: HCT-116 colorectal cancer cells; assay: antitumor activity, sulforhodamine B cell growth assay, HCT-116
Experimental: as §1, §2, §3, §4

[7] = system: NCI-H522 lung cancer cells; assay: antitumor activity, sulforhodamine B cell growth assay, NCI-H522
Experimental: as §1, §2, §3, §4

[8] = system: NCI-H460 lung cancer cells; assay: antitumor activity, sulforhodamine B cell growth assay, NCI-H460
Experimental: as §1, §2, §3, §4

A549 lung cancer cells = assay: antitumor activity, sulforhodamine B cell growth assay, A549
Experimental: as §1, §2, §3, §4

[9] = system: OVCAR-5 cervical cancer cells; assay: antitumor activity, sulforhodamine B cell growth assay, OVCAR-5
Experimental: as §1, §2, §3, §4

OVCAR-8 cancer cells = assay: antitumor activity, sulforhodamine B cell growth assay, OVCAR-8
Experimental: as §1, §2, §3, §4

SK-OV-3 cancer cells = assay: antitumor activity, sulforhodamine B cell growth assay, SK-OV-3
Experimental: as §1, §2, §3, §4

[10] = system: RXF-631L kidney cancer cells; assay: antitumor activity, sulforhodamine B cell growth assay, RXF-631L
Experimental: as §1, §2, §3, §4

[11] = system: St-4 gastric cancer cells; assay: antitumor activity, sulforhodamine B cell growth assay, St-4
Experimental: as §1, §2, §3, §4

[12] = system: MKN1 gastric cancer cells; assay: antitumor activity, sulforhodamine B cell growth assay, MKN1
Experimental: as §1, §2, §3, §4

[13] = system: MKN-B gastric cancer cells; assay: antitumor activity, sulforhodamine B cell growth assay, MKN-B
Experimental: as §1, §2, §3, §4

[14] = system: MKN-A gastric cancer cells; assay: antitumor activity, sulforhodamine B cell growth assay, MKN-A
Experimental: as §1, §2, §3, §4

[15] = system: DU-145 prostate cancer cells; assay: antitumor activity, sulforhodamine B cell growth assay, DU-145
Experimental: as §1, §2, §3, §4

[16] = system: various cancer cell lines; assay: Verification of antitumor activity, whole panel of cancer cell lines; settings: in words, compared with Cyanosafracin B
Experimental: as §1, §2, §3, §4

[17] = RXF-631L, drug exposure 48 hours, read-out: GI50 value: 50% growth inhibitory concentration
[18] = St-4 (SI-4 in Tables 2-11), drug exposure 48 hours, read-out: GI50 value: 50% growth inhibitory concentration
[19] = MKN-B, drug exposure 48 hours, read-out: GI50 value: 50% growth inhibitory concentration
[20] = MKN-A, drug exposure 48 hours, read-out: GI50 value: 50% growth inhibitory concentration
[21] = HBC4, HBC-4 breast cancer cells, read-out: antitumor activity GI50 value: 50% growth inhibitory concentration
[22] = Homo sapiens, SNB-75 central nervous system cancer cells, read-out: antitumor activity GI50 value: 50% growth inhibitory concentration
[23] = Homo sapiens, SNB-78 central nervous system cancer cells, read-out: antitumor activity GI50 value: 50% growth inhibitory concentration
[24] = Homo sapiens, HT-29 colorectal cancer cells, read-out: antitumor activity GI50 value: 50% growth inhibitory concentration
[25] = Homo sapiens, HCT-15 colorectal cancer cells, read-out: antitumor activity GI50 value: 50% growth inhibitory concentration
[26] = Homo sapiens, HCT-116 colorectal cancer cells, read-out: antitumor activity GI50 value: 50% growth inhibitory concentration
[27] = Homo sapiens, NCI-H522, NCl-H522 lung cancer cells, read-out: antitumor activity GI50 value: 50% growth inhibitory concentration
[28] = Homo sapiens, NCI-H460, NCl--H460 lung cancer cells, read-out: antitumor activity GI50 value: 50% growth inhibitory concentration
[29] = Homo sapiens, A549 lung cancer cells, read-out: antitumor activity GI50 value: 50% growth inhibitory concentration
[30] = Homo sapiens, OVCAR-5 cervical cancer cells, read-out: antitumor activity GI50 value: 50% growth inhibitory concentration
[31] = Homo sapiens, OVCAR-8 cervical cancer cells, read-out: antitumor activity GI50 value: 50% growth inhibitory concentration
[32] = Homo sapiens, SK-OV-3 cervical cancer cells, read-out: antitumor activity GI50 value: 50% growth inhibitory concentration
[33] = RXF-631L kidney cancer cells, read-out: antitumor activity GI50 value: 50% growth inhibitory concentration
[34] = SI-4 gastric cancer cells, read-out: antitumor activity GI50 value: 50% growth inhibitory concentration
[35] = Homo sapiens, MKN-1, MKN1 gastric cancer cells, read-out: antitumor activity GI50 value: 50% growth inhibitory concentration
[36] = MKN-B gastric cancer cells, read-out: antitumor activity GI50 value: 50% growth inhibitory concentration
[37] = MKN-A gastric cancer cells, read-out: antitumor activity GI50 value: 50% growth inhibitory concentration
[38] = Homo sapiens, DU-145 prostate cancer cells, read-out: antitumor activity GI50 value: 50% growth inhibitory concentration

## COc1c(C)cc2c(c1O)[C@@H]1[C@@H]3Cc4c5c(C)c6c(c4C(CNC(=O)[C@H](C)NC(=O)OCC4C=C(CO5)Cn5c(=O)n(-c7ccccc7)c(=O)n54)N3[C@@H](C#N)[C@H](C2)N1C)OCO6 [Compound 16]
[1]; HBC4, HBC-4, drug exposure 48 hours, read-out: GI50 value: 50% growth inhibitory concentration
  GI50: 5.2 nM
[2]; Homo sapiens, SNB-75, drug exposure 48 hours, read-out: GI50 value: 50% growth inhibitory concentration
  GI50: 9.9 nM
[3]; Homo sapiens, SNB-78, drug exposure 48 hours, read-out: GI50 value: 50% growth inhibitory concentration
  GI50: 7.5 nM
[4]; Homo sapiens, HT-29, drug exposure 48 hours, read-out: GI50 value: 50% growth inhibitory concentration
  GI50: 7.3 nM
[5]; Homo sapiens, HCT-15, drug exposure 48 hours, read-out: GI50 value: 50% growth inhibitory concentration
  GI50: 43 nM
[6]; Homo sapiens, HCT-116, drug exposure 48 hours, read-out: GI50 value: 50% growth inhibitory concentration
  GI50: 9.3 nM
[7]; Homo sapiens, NCI-H522, drug exposure 48 hours, read-out: GI50 value: 50% growth inhibitory concentration
  GI50: 2.4 nM
[8]; Homo sapiens, NCI-H460, drug exposure 48 hours, read-out: GI50 value: 50% growth inhibitory concentration
  GI50: 36 nM
A549 lung cancer cells; Homo sapiens, A549, drug exposure 48 hours, read-out: GI50 value: 50% growth inhibitory concentration
  GI50: 51 nM
[9]; Homo sapiens, OVCAR-5, drug exposure 48 hours, read-out: GI50 value: 50% growth inhibitory concentration
  GI50: 31 nM
OVCAR-8 cancer cells; Homo sapiens, OVCAR-8, drug exposure 48 hours, read-out: GI50 value: 50% growth inhibitory concentration
  GI50: 21 nM
SK-OV-3 cancer cells; Homo sapiens, SK-OV-3, drug exposure 48 hours, read-out: GI50 value: 50% growth inhibitory concentration
  GI50: 34 nM
[10]; [17]
  GI50: 35 nM
[11]; [18]
  GI50: 37 nM
[12]; Homo sapiens, MKN-1, MKN1, drug exposure 48 hours, read-out: GI50 value: 50% growth inhibitory concentration
  GI50: 4.8 nM
[13]; [19]
  GI50: 30 nM
[14]; [20]
  GI50: 29 nM
[15]; Homo sapiens, DU-145, drug exposure 48 hours, read-out: GI50 value: 50% growth inhibitory concentration
  GI50: 41 nM
[16]
  antitumor activity: better antitumor activity than Cyanosafracin B

## COc1c(C)cc2c(c1O)C1C3Cc4c5c(C)c6c(c4C(CNC(=O)C(C)NCC=CCO5)N3C(C#N)C(C2)N1C)OCO6 (stereo not shown) [Compound 42]
[1]; HBC-4, drug exposure 48 hours, read-out: GI50 value: 50% growth inhibitory concentration
  GI50: < 10 nM
[2]; SNB-75, drug exposure 48 hours, read-out: GI50 value: 50% growth inhibitory concentration
  GI50: < 10 nM
[3]; SNB-78, drug exposure 48 hours, read-out: GI50 value: 50% growth inhibitory concentration
  GI50: 11 nM
[4]; HT-29, drug exposure 48 hours, read-out: GI50 value: 50% growth inhibitory concentration
  GI50: 13 nM
[5]; HCT-15, drug exposure 48 hours, read-out: GI50 value: 50% growth inhibitory concentration
  GI50: 47 nM
[6]; HCT-116, drug exposure 48 hours, read-out: GI50 value: 50% growth inhibitory concentration
  GI50: 21 nM
[7]; NCI-H522, drug exposure 48 hours, read-out: GI50 value: 50% growth inhibitory concentration
  GI50: < 10 nM
[8]; NCI-H460, drug exposure 48 hours, read-out: GI50 value: 50% growth inhibitory concentration
  GI50: 22 nM
A549 lung cancer cells; A549, drug exposure 48 hours, read-out: GI50 value: 50% growth inhibitory concentration
  GI50: 110 nM
[9]; OVCAR-5, drug exposure 48 hours, read-out: GI50 value: 50% growth inhibitory concentration
  GI50: 47 nM
OVCAR-8 cancer cells; OVCAR-8, drug exposure 48 hours, read-out: GI50 value: 50% growth inhibitory concentration
  GI50: 34 nM
SK-OV-3 cancer cells; SK-OV-3, drug exposure 48 hours, read-out: GI50 value: 50% growth inhibitory concentration
  GI50: 49 nM
[10]; [17]
  GI50: 34 nM
[11]; [18]
  GI50: 37 nM
[12]; MKN1, drug exposure 48 hours, read-out: GI50 value: 50% growth inhibitory concentration
  GI50: 18 nM
[13]; [19]
  GI50: 25 nM
[14]; [20]
  GI50: 36 nM
[15]; DU-145, drug exposure 48 hours, read-out: GI50 value: 50% growth inhibitory concentration
  GI50: 58 nM
[16]
  antitumor activity: better antitumor activity than Cyanosafracin B

## C#CCN1C(=O)[C@H]2[C@@H]3C=C(COc4c(C)c5c(c6c4C[C@H]4[C@H]7c8c(cc(C)c(OC)c8O)C[C@@H]([C@H](C#N)N4C6CNC(=O)[C@H](C)NC(=O)OC3)N7C)OCO5)C[C@H]2C1=O [Compound 47]
[1]; [21]
  GI50: 200 nM
[2]; [22]
  GI50: 330 nM
[3]; [23]
  GI50: 260 nM
[4]; [24]
  GI50: 490 nM
[5]; [25]
  GI50: 2200 nM
[6]; [26]
  GI50: 450 nM
[7]; [27]
  GI50: 29 nM
[8]; [28]
  GI50: 630 nM
A549 lung cancer cells; [29]
  GI50: 3900 nM
[9]; [30]
  GI50: 2800 nM
OVCAR-8 cancer cells; [31]
  GI50: 1100 nM
SK-OV-3 cancer cells; [32]
  GI50: 3900 nM
[10]; [33]
  GI50: 2100 nM
[11]; [34]
  GI50: 2200 nM
[12]; [35]
  GI50: 290 nM
[13]; [36]
  GI50: 730 nM
[14]; [37]
  GI50: 1400 nM
[15]; [38]
  GI50: 3900 nM
[16]
  antitumor activity: better antitumor activity than Cyanosafracin B

## C#CCN1C/C=C/COc2c(C)c3c(c4c2C[C@H]2[C@H]5c6c(cc(C)c(OC)c6O)C[C@@H]([C@H](C#N)N2C4CNC(=O)[C@@H]1C)N5C)OCO3 [Compound 44]
[1]; [21]
  GI50: < 10 nM
[2]; [22]
  GI50: < 10 nM
[3]; [23]
  GI50: < 10 nM
[4]; [24]
  GI50: < 10 nM
[5]; [25]
  GI50: < 10 nM
[6]; [26]
  GI50: < 10 nM
[7]; [27]
  GI50: < 10 nM
[8]; [28]
  GI50: < 10 nM
A549 lung cancer cells; [29]
  GI50: < 10 nM
[9]; [30]
  GI50: < 10 nM
OVCAR-8 cancer cells; [31]
  GI50: < 10 nM
SK-OV-3 cancer cells; [32]
  GI50: < 10 nM
[10]; [33]
  GI50: < 10 nM
[11]; [34]
  GI50: < 10 nM
[12]; [35]
  GI50: < 10 nM
[13]; [36]
  GI50: < 10 nM
[14]; [37]
  GI50: < 10 nM
[15]; [38]
  GI50: < 10 nM
[16]
  antitumor activity: better antitumor activity than Cyanosafracin B
